Columns and labels:
[1] = Apparent hydrodynamic diameter by DLS (Zetasizer nano-ZS); format: physicochemical; details: 25° C.
Source text: The data was obtained from three independent measurements.

[2] = system: KB cells; experiment: FITC Annexin V / PI apoptosis assay (FACS); format: cell-based, Human; details: 1 μM, 48 hr treatment
Experimental: FITC Annexin V Apoptosis Detection Kit (BD Pharmingen) and Caspase-3 Assay Kit (BD Pharmingen) were used as previously reported to study cell apoptosis induced by pRNA-3WJ-PTX micelle treatment. For FITC Annexin V staining assay, KB cells were seeded in 12-well plates overnight. […] The controls include Paclitaxel, pRNA-3WJ micelles, and pRNA-3WJ. According to manufacturer instructions, 48 hr after incubation with the RNA micelles, KB cells were trypsinized to single cell suspension. After two PBS washes, the cells were resuspended in 100 μL 1× Annexin V-FITC binding buffer. Then 5 μL AnnexinV-FITC and 5 μL propidium iodide (PI) were added into each sample and incubated at room temperature for 25 min. The samples were finally added to a flow tube which contained 200 μL 1× binding buffer for FACS analysis within 1 hr.

[3] = FIG. 31B
Source text: Table printed on a drawing sheet, FIG. 31B
The patent's description of the figure: FIGS. 31A and 31B show enzymatic stability of branched 3WJs modular RNA motifs. FIG. 31A. Serum degradation curve. FIG. 31B. Half life of 3WJs in 50% serum.
FIGS. 29A to 31B show design (FIGS. 29A and 29B), thermal stability (qPCR & TGGE, FIGS. 30A to 30C), and enzymatic stability (serum stability assay, FIGS. 31A and 31B) of branched 3WJs with different core and helix.

Row | Substance | average hydrodynamic diameter [1] [nm] | cells undergoing apoptosis [2] [%] | t1/2 [3] [h]
1 | pRNA-3WJ: phi29 pRNA three-way junction scaffold of a3WJ, b3WJ, c3WJ (SEQ ID NO:16-18), without lipophilic and therapeutic modules (chain 1 UUGCCAUGUGUAUGUGGG; chain 2 CCCACAUACUUUGUUGAUCC; chain 3 GGAUCAAUCAUGGCAA; 2'-fluoro at CU, RNA at AG, backbone not given here) | 7.466±1.215 | 3.7 | 
2 | Phi29-Mod: 3WJ modular RNA motif, SEQ ID NOs:19-21 (chain 1 AUUCGCUGUGUGGUAGUG; chain 2 CACUACCACUUUGUCCUACG; chain 3 CGUAGGACCAGCGAAU; further chemistry not given here) |  |  | 24

— US11976092B2, “RNA nanostructures, methods of making, and uses thereof” (Ohio State Innovation Foundation, priority 2018, dated 2024)
